Entries after “also recorded” stand apart in the source; their conditions may differ. Read-outs that look alike come from different tables or passages of the source. The star is where a group is joined. AFC = O=c1cc(C(F)(F)F)c2ccc(N*)cc2o1; pNA = O=[N+]([O-])c1ccc(N*)cc1
How the values were obtained:
caspase-2 [1] = conditions: aldehyde inhibitors; cited from earlier work
Description: (§1) Research into caspase-2 biology has been hampered by a dearth of selective reagents capable of distinguishing between caspases-2 and -3. Peptides and inhibitors based on the sequence VDVAD are marketed as ‘caspase-2-specific’ but also react strongly with caspase-3.

caspase-3 [2] = target: T1, caspase-3 (Homo sapiens, UniProt P42574); conditions: aldehyde inhibitors; cited from earlier work
T1 construct: made in house; host or cells: E. coli BL21(DE3)pLysS
T1 sequence (P42574 29-175 limits assumed): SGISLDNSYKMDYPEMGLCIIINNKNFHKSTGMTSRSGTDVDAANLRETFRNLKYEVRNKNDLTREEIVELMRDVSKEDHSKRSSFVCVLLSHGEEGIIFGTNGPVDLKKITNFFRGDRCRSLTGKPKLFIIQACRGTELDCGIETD
T1 sequence (P42574 176-277 limits assumed): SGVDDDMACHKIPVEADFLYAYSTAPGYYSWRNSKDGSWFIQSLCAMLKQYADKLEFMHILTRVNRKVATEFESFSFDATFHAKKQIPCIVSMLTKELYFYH
Description: as §1

caspase-2 [3] = conditions: cited from earlier work
Description: (§2) Some of the confusion regarding the function of caspase-2 may stem from researchers’ use of non-specific tools for monitoring its activity and inhibition. […] Subsequent studies have confirmed the lack of specificity associated VDVAD-based tools, yet many researchers continue to employ substrates and inhibitors derived from this peptide sequence as c ...

caspase-3 [4] = target: T1, caspase-3; conditions: compared with caspase-2; cited from earlier work
Description: as §2

caspase-3 [5] = target: T1, caspase-3; assay: Fluorogenic peptide cleavage by purified caspase-3 (AFC release); assay type: biochemical
Procedure: (§3) Caspases-2, -3 and -8 were purified using NiNTA resin (Qiagen) from BL21(DE3)pLysS bacteria (Novagen/Merck) transformed with pET23a–caspase-2^Δ1−149 [44], pET23a–caspase-3 [54] or pET15b–caspase-8^Δ1−216 plasmids. Induction conditions were: caspase-2, 0.4 mM IPTG (isopropyl β-D-thiogalactoside), 2 h 37°C; caspase-3, 0.2 mM IPTG, 3 h 30°C; caspase-8, 1 mM IPTG, 4 h 25°C. Caspases were active site-titrated using zVAD-fmk (Merck). ArcticExpress DE3 bacteria (Agilent Technologies) were transformed with the pET23a Bid expression plasmids described above, induced for 48 h at 10°C using 1 mM IPTG, then the His6-tagged Bid proteins were purified using NiNTA resin (Qiagen). Recombinant proteins were quantitated using the Bicinchoninic acid protein assay kit (Sigma). Runx1 proteins were synthesized using the TNT T7 quick coupled transcription/translation system (Promega) with non-radioactive methionine, using intact Runx1–pET23a plasmids as templates. The concentration of Runx1 proteins was determined by quantitative anti-His6 immunoblotting, using purified AcP35–His6 [56] as a standard.
Caspases were pre-activated for 30 min at 37°C in their preferred buffers, then diluted and mixed with fluorogenic peptide substrates. Fluorescence (excitation 410 nm, emission 500 nm) was measured every 10–60 s for up to 1 h using a FluoStar Galaxy (BMG Labtech). The maximal slope of each curve was calculated. A standard curve, using free AFC (Sigma), was used to convert fluorescence emissions into concentration of AFC produced during the cleavage reactions. Prism 5.0 software was used to determine kcat and KM from three to four independent experiments, as previously described. Ac-DEVD-AFC and Ac-VDVAD-AFC were purchased from Enzo Life Sciences. The custom substrates Ac-VDTTD-AFC and Ac-VDVPD-AFC were synthesized by 21st Century Biochemicals. […] The SuperSignal West Dura Substrate (Thermo Scientific) was used to detect signals and quantitation of sub-saturated exposures was performed using a Syngene G:Box and Image Lab 3.0 software (BioRad). […]

caspase-2 [6] = assay: Fluorogenic peptide cleavage by purified caspase-2 (AFC release); assay type: biochemical
Procedure: as §3
(§4) Caspases were pre-activated for 30 min at 37°C in their preferred buffers, then diluted and mixed with fluorogenic peptide substrates. Fluorescence (excitation 410 nm, emission 500 nm) was measured every 10–60 s for up to 1 h using a FluoStar Galaxy (BMG Labtech). The maximal slope of each curve was calculated. A standard curve, using free AFC (Sigma), was used to convert fluorescence emissions into concentration of AFC produced during the cleavage reactions. Prism 5.0 software was used to determine kcat and KM from three to four independent experiments, as previously described. Ac-DEVD-AFC and Ac-VDVAD-AFC were purchased from Enzo Life Sciences. The custom substrates Ac-VDTTD-AFC and Ac-VDVPD-AFC were synthesized by 21st Century Biochemicals. 150 nM Bid or 100 nM Runx1 proteins were incubated with specified concentrations of caspases in their preferred buffers for 1 h (Runx1) or 0.5 h (Bid variants) at 37°C, then subjected to SDS–PAGE and immunoblotting with anti-Bid (#AF860 R&D Systems) or anti-His6 antibodies (#A00186 GenScript). Secondary antibodies were anti-mouse-HRP (#A9044, Sigma) or anti-goat-HRP (#6300-05, Southern Biotech). The SuperSignal West Dura Substrate (Thermo Scientific) was used to detect signals and quantitation of sub-saturated exposures was performed using a Syngene G:Box and Image Lab 3.0 software (BioRad). Linear regression was used to determine the caspase concentration, which cleaved half of each protein.

[7] = test system: auto-activating caspase-2 in HEK-293T cell lysate; assay: Fluorogenic peptide cleavage by lysates of HEK-293T cells expressing auto-activating caspase-2; assay type: biochemical, human embryonic kidney cells; conditions: HEK-293T lysates with auto-activating caspase-2 or -3, 0.1 mM substrate
Procedure: as §4
HEK-293T cells [human embryonic kidney cells expressing the large T-antigen of SV40 (simian virus 40)] were cultured, transfected, harvested and lysed as described except that protease inhibitors were not used. Each lysate was mixed with the appropriate fluorogenic substrate (0.1 mM) in caspase buffer, and fluorescence was monitored as outlined above.

Substance | inhibition of caspase-2 compared with caspase-3 (in words) (caspase-2 [1]) | inhibition of caspase-3 compared with caspase-2 (in words) (caspase-3 [2]) | caspase-2 versus caspase-3 selectivity in cell lysates (in words) [7] | also measured
Ac-VDVPD-aldehyde | inhibited caspases-2 and -3 with similar potencies | inhibited caspases-2 and -3 with similar potencies | – | –
Ac-VDVAD-aldehyde | inhibited caspases-2 and -3 with similar potencies | inhibited caspases-2 and -3 with similar potencies | – | –
Ac-VDVAD-pNA | – | – | – | cleavage by caspase-2 (in words) (caspase-2 [3]): could efficiently cleave peptides containing the sequence VDVAD; cleavage by caspase-3 (in words) (caspase-3 [4]): caspase-3 could cleave these peptides with similar kinetics
Ac-VDVPD-{AFC} [custom fluorogenic substrate based on the Runx1 cleavage site] | – | – | cleaved at similar rates in cell lysates containing active caspases-2 or -3 | cleavage by caspase-3 (in words) (caspase-3 [5]): proteolysed this substrate more efficiently than Ac-VDVAD-AFC; cleavage by caspase-2 (in words) (caspase-2 [6]; purified caspase-2): enhanced sensitivity to caspase-2 relative to Ac-VDVAD-AFC; also recorded: cleaved by caspase-2 slightly better than Ac-VDVAD; selectivity for caspase-2 relative to caspase-3 (in words) (caspase-2 [6]; purified caspases-2 and -3): less specific than Ac-VDVAD-AFC for caspase-2 relative to caspase-3; also recorded: lacked the sought-after selectivity for caspase-2 over caspase-3
Ac-VDVAD-{AFC} [classical caspase-2 substrate, purchased from Enzo Life Sciences, reference compound] | – | – | cleaved only slightly better by extracts from cells expressing caspase-2 than caspase-3 | –
